Data taken from ChEMBL document CHEMBL5046253, “Synthesis and bioevaluation of diaryl urea derivatives as potential antitumor agents for the treatment of human colorectal cancer” (Eur J Med Chem, 2022).

Legend:
[1] = molecular target: Phosphatidylinositol 4,5-bisphosphate 3-kinase catalytic subunit alpha isoform (Homo sapiens, UniProt P42336); experiment: Inhibition of PI3Kalpha (unknown origin) using PIP2 as substrate in presence of ATP incubated for 60 mins by ADP-glo based luminescence assay
Phosphatidylinositol 4,5-bisphosphate 3-kinase catalytic subunit alpha isoform, sequence (P42336 whole entry, canonical isoform): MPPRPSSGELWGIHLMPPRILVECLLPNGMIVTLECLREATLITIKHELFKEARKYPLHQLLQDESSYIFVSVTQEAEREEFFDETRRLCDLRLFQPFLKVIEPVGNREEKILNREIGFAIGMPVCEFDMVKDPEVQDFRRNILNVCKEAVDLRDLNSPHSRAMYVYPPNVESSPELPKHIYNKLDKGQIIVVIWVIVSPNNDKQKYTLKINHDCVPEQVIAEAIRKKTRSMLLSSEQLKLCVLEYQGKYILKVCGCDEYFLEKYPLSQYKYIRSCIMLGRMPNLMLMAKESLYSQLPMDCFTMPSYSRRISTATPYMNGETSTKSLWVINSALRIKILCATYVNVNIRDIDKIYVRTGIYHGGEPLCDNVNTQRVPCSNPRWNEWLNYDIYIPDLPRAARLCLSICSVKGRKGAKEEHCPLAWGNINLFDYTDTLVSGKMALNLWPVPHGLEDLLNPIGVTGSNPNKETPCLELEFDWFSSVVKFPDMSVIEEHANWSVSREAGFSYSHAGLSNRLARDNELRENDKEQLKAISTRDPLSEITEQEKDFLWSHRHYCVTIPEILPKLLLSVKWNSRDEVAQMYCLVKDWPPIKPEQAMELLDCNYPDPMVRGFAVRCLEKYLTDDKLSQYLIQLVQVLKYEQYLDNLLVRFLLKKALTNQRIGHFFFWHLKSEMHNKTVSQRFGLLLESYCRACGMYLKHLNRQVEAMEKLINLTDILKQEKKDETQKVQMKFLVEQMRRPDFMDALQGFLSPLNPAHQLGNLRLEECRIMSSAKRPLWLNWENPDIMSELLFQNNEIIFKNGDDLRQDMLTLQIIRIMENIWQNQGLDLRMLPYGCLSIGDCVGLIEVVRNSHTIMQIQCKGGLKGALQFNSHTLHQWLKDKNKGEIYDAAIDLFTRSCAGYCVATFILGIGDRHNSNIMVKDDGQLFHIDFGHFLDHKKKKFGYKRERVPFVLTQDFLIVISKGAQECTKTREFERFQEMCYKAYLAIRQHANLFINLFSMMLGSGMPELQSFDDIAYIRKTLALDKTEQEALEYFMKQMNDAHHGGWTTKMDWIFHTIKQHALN

MCF7 = experiment: Antiproliferative activity against human MCF7 cells assessed as reduction in cell viability incubated for 48 hrs by MTT assay; type: functional, cell-based; details: MCF7, 48 h
HCT-116 = experiment: Antiproliferative activity against human HCT-116 cells assessed as reduction in cell viability incubated for 48 hrs by MTT assay; type: functional, cell-based; details: HCT-116, 48 h
MDA-MB-231 = experiment: Antiproliferative activity against human MDA-MB-231 cells assessed as reduction in cell viability incubated for 48 hrs by MTT assay; type: functional, cell-based; details: MDA-MB-231, 48 h
CNE-2 = experiment: Antiproliferative activity against human CNE-2 cells assessed as reduction in cell viability incubated for 48 hrs by MTT assay; type: functional, cell-based; details: CNE-2, 48 h
HeLa = experiment: Antiproliferative activity against human HeLa cells assessed as reduction in cell viability incubated for 48 hrs by MTT assay; type: functional, cell-based
[2] = molecular target: Serine/threonine-protein kinase mTOR (Homo sapiens, UniProt P42345); experiment: Inhibition of mTOR (unknown origin) using U-Light-4E-BP1 peptide as a substrate in presence of ATP incubated for 45 mins by Lance ultra assay
[3] = molecular target: T1, Phosphatidylinositol 4,5-bisphosphate 3-kinase catalytic subunit delta isoform (Homo sapiens, UniProt O00329); experiment: Inhibition of PI3Kdelta (unknown origin) using PIP2 as substrate in presence of ATP incubated for 60 mins by ADP-glo based luminescence assay
T1 sequence (O00329 whole entry): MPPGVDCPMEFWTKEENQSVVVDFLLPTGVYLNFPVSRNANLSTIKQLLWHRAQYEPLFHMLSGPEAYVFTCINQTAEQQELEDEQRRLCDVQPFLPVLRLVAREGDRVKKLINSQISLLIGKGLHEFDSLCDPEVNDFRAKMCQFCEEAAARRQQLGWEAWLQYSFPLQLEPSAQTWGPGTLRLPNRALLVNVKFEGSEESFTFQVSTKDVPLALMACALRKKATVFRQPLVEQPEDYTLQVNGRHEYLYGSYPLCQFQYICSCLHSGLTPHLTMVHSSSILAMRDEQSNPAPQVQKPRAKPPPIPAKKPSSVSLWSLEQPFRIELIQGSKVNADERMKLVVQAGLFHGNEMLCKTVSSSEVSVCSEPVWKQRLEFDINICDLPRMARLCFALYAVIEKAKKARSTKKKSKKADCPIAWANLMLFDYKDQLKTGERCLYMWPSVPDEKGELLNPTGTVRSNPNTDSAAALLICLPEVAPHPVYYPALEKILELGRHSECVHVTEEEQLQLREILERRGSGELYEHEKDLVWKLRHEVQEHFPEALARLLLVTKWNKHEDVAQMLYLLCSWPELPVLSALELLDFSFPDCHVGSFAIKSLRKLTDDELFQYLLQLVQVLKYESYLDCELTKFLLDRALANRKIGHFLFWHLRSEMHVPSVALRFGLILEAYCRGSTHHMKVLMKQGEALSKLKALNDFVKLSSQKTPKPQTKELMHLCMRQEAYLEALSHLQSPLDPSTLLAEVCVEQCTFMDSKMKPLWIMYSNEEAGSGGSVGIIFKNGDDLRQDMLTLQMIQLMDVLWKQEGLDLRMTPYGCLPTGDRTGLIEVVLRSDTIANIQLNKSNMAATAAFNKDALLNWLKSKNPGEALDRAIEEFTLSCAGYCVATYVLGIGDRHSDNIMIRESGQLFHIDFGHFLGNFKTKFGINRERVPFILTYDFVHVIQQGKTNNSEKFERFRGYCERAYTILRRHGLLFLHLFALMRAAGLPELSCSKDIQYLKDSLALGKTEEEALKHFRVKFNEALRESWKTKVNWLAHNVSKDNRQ

[4] = molecular target: Phosphatidylinositol 4,5-bisphosphate 3-kinase catalytic subunit gamma isoform (Homo sapiens, UniProt P48736); experiment: Inhibition of PI3Kgamma (unknown origin) using PIP2 as substrate in presence of ATP incubated for 60 mins by ADP-glo based luminescence assay
Phosphatidylinositol 4,5-bisphosphate 3-kinase catalytic subunit gamma isoform, sequence (P48736 whole entry, canonical isoform): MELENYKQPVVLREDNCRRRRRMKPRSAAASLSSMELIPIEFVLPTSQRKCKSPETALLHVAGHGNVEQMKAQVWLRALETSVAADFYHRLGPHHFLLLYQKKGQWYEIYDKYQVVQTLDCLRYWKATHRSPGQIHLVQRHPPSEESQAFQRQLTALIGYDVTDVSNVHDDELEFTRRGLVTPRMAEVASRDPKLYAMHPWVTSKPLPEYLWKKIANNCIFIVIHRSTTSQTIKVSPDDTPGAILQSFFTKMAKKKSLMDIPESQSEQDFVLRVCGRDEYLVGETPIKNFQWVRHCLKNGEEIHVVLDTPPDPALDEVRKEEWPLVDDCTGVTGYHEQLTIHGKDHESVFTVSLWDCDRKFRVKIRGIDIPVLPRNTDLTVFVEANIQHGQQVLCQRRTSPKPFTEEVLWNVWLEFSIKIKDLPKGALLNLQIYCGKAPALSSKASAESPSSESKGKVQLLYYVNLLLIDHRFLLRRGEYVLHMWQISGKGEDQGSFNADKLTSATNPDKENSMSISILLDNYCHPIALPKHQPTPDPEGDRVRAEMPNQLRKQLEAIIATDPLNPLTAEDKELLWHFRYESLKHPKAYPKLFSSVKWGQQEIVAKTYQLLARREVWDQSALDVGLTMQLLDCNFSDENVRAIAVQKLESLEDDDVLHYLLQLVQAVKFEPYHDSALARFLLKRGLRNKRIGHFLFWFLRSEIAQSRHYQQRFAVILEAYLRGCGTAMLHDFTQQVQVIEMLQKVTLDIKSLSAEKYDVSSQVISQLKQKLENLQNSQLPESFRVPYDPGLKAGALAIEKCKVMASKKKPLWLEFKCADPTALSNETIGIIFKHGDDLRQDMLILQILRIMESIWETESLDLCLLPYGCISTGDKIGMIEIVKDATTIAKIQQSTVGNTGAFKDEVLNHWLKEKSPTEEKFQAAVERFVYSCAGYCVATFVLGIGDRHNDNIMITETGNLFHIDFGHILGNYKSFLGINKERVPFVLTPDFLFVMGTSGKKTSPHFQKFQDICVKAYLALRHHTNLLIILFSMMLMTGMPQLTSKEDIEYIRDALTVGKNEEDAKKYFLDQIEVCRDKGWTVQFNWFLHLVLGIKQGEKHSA

[5] = molecular target: Phosphatidylinositol 4,5-bisphosphate 3-kinase catalytic subunit beta isoform (Homo sapiens, UniProt P42338); experiment: Inhibition of PI3Kbeta (unknown origin) using PIP2 as substrate in presence of ATP incubated for 60 mins by ADP-glo based luminescence assay
Phosphatidylinositol 4,5-bisphosphate 3-kinase catalytic subunit beta isoform, sequence (P42338 whole entry, canonical isoform): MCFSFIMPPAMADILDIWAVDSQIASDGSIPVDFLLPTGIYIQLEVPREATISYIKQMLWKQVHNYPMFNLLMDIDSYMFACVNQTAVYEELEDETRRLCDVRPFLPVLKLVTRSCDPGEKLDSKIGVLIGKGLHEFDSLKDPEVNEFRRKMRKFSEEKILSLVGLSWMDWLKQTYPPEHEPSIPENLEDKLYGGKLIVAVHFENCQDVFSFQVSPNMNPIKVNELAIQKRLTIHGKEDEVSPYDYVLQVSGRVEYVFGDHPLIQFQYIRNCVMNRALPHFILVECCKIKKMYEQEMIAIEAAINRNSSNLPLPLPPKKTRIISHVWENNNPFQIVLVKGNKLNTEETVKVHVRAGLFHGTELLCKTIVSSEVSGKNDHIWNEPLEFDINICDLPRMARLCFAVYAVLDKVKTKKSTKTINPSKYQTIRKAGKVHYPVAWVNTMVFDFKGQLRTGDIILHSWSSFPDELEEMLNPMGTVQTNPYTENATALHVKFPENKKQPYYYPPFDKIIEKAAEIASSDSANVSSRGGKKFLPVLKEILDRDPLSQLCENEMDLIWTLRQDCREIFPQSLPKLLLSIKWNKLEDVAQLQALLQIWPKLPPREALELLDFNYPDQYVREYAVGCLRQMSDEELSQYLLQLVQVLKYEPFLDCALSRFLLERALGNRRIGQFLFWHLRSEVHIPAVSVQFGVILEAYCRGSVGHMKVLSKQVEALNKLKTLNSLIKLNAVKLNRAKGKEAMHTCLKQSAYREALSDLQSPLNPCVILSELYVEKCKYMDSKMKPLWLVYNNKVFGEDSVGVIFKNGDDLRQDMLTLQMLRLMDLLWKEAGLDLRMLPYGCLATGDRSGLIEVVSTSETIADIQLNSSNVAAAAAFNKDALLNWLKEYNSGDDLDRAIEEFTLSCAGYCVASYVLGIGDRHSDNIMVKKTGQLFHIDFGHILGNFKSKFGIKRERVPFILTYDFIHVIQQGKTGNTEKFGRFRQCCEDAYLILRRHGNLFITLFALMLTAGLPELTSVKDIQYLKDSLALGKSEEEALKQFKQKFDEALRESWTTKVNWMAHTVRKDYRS

HepG2 = experiment: Antiproliferative activity against human HepG2 cells assessed as reduction in cell viability incubated for 48 hrs by MTT assay; type: functional, cell-based; details: HepG2, 48 h
A-431 = experiment: Antiproliferative activity against human A431 cells harboring wild type EGFR mutant assessed as reduction in cell viability incubated for 72 hrs by celltiter-glo assay; type: functional, cell-based; details: A-431, 72 h
NCI-H1975 = experiment: Antiproliferative activity against human NCI-H1975 cells harboring EGFR L858R/T790M double mutant assessed as reduction in cell viability incubated for 72 hrs by celltiter-glo assay; type: functional, cell-based; details: NCI-H1975, 72 h
BaF3 = experiment: Antiproliferative activity against mouse BaF3 cells harboring EGFR L858R/T790M/C797S mutant assessed as reduction in cell viability incubated for 72 hrs by celltiter-glo assay; type: toxicity, cell-based; details: BaF3, 72 h

Structure (SMILES)	IC50 [1] [nM]	IC50 (MCF7) [nM]	IC50 (HCT-116) [nM]	IC50 (MDA-MB-231) [nM]	IC50 (HeLa) [nM]	IC50 [2] [nM]	IC50 [3] [nM]	IC50 [4] [nM]	IC50 [5] [nM]	IC50 (HepG2) [nM]	IC50 (A-431) [nM]	IC50 (NCI-H1975) [nM]	IC50 (CNE-2) [nM]	IC50 (BaF3) [nM]
CN(C)C1CCN(C(=O)c2cnc(Nc3ccc(-c4nc(N5CCOCC5)nc(N5CCOCC5)n4)cc3)nc2)CC1	> 1000													
O=C(Nc1ccc(C(=O)N2CCCC2C(=O)O)cc1)Nc1ccc(-c2nc(N3CCOCC3)nc(N3CCOCC3)n2)cc1 (centres undefined)	11	7150		29100	11700	3.7							2560	
NC(=O)C1CCCCN1C(=O)c1ccc(NC(=O)Nc2ccc(-c3cc(N4CCOCC4)nc(N4CCOCC4)n3)cc2)cc1 (centres undefined)	16.5	3160	2570	5210	1510	7.6				17700			2000	
CN(C)C1CCN(C(=O)c2ccc(NC(=O)Nc3ccc(-c4cc(N5CCOCC5)nc(N5CCOCC5)n4)cc3)cc2)CC1	31.8	9280	1610	7570	4740	6.2							1460	
COC(=O)[C@@H]1C[C@@H](O)CN1C(=O)c1ccc(NC(=O)Nc2ccc(-c3nc(N4CCOCC4)nc(N4CCOCC4)n3)cc2)cc1	28.7	700	310	430	1430	3.3				8820			2680	
CN(C)[C@H]1C[C@@H](C(N)=O)N(C(=O)c2ccc(NC(=O)Nc3ccc(-c4nc(N5CCOCC5)nc(N5CCOCC5)n4)cc3)cc2)C1	9.1		2480	19200	28500	3.1				18700			6670	

Now those with a lower IC50 [1], led by results:

IC50 [1] [nM]	IC50 (MCF7) [nM]	IC50 (HCT-116) [nM]	IC50 (MDA-MB-231) [nM]	IC50 (HeLa) [nM]	IC50 [2] [nM]	IC50 [3] [nM]	IC50 [4] [nM]	IC50 [5] [nM]	IC50 (HepG2) [nM]	IC50 (A-431) [nM]	IC50 (NCI-H1975) [nM]	Structure (SMILES)	IC50 (CNE-2) [nM]	IC50 (BaF3) [nM]
0.6	4850	200	6780	8600	1.4							NC(=O)C1CCCN1C(=O)c1ccc(NC(=O)Nc2ccc(-c3nc(N4CCOCC4)nc(N4CCOCC4)n3)cc2)cc1 (centres undefined)	520	
0.6	10400	290	7350	10400	2.3	13	7.4	3.2				NC(=O)[C@H]1CCCN1C(=O)c1ccc(NC(=O)Nc2ccc(-c3nc(N4CCOCC4)nc(N4CCOCC4)n3)cc2)cc1	180	
1.6		3780	5640	10300	3				16600			NC(=O)C1CCCCN1C(=O)c1ccc(NC(=O)Nc2ccc(-c3nc(N4CCOCC4)nc(N4CCOCC4)n3)cc2)cc1 (centres undefined)	1740	
1.6	2290	740	250	9690	2.1				130	242	601	NC(=O)C1CCCN(C(=O)c2ccc(NC(=O)Nc3ccc(-c4nc(N5CCOCC5)nc(N5CCOCC5)n4)cc3)cc2)C1 (centres undefined)	10200	294
4.3		380	1740	210	1.2				540			C[C@H]1COCCN1c1nc(-c2ccc(NC(=O)Nc3ccc(C(=O)N4CCC(C(N)=O)CC4)cc3)cc2)nc(N2CCOCC2)n1	670	
5					0.9	44.1	34	47.1				C[C@H](NC(=O)c1ccc(NC(=O)Nc2ccc(-c3nc(N4CCOCC4)nc(N4CCOC[C@@H]4C)n3)cc2)cc1)C(N)=O		
